For one test, the target named is KOR (Homo sapiens, UniProt P41145). In words: NIMH PDSP radioligand binding, KOR. How it is done: (§1) Radioligands and concentrations used for additional 45 CNS receptor binding assays are listed as supporting information (S1 Table). This work was performed by the National Institute of Mental Health Psychoactive Drug Screening Program (NIMH PDSP) as described previously.[26] Briefly target compounds were dissolved in DMSO and subjected to a primary screen at 10,000 nM concentration. […] Additional experimental details are available in the NIMH PDSP assay protocol book.

Another test concerns the target T1, Alpha2C (Homo sapiens, UniProt P18825).
T1 sequence (P18825 1-462): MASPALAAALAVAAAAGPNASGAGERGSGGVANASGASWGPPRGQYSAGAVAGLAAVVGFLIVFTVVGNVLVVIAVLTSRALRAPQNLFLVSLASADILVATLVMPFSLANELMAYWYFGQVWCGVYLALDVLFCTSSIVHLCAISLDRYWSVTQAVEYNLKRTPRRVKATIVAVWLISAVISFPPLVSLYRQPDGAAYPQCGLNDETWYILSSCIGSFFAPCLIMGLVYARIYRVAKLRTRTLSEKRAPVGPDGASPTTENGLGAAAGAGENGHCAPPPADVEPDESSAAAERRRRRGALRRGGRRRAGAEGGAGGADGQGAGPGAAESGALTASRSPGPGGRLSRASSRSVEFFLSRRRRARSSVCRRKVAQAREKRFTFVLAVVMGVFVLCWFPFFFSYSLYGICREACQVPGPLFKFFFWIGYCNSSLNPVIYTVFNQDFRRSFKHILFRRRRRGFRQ
In words: NIMH PDSP radioligand binding, Alpha2C. As to the method:
as §1

In another test the target is T2, Sigma 2 (Rattus norvegicus, UniProt Q5U3Y7).
T2 sequence (Q5U3Y7 1-176): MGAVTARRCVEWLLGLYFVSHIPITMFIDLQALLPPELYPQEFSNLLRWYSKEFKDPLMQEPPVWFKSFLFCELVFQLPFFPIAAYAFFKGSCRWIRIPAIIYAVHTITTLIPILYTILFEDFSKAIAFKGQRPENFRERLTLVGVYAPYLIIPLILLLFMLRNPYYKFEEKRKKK
The test is described as follows: NIMH PDSP radioligand binding, Sigma 2. How it is done: as §1

For the next test, the system named is Sprague–Dawley rats. The test is described as follows: Acoustic startle response (ASR) magnitude in rats. Type of test: in vivo, rat. How it is done:
Male Sprague–Dawley rats from Harlan Industries (Indianapolis, IN, USA; initial weight 250–275 g) were housed in pairs under a 12-h reverse light/dark cycle (lights off at 0700 h). Use of a reversed light/dark cycle allows behavioral testing to be conducted during the awake phase of the light/dark cycle. Food and water were available ad libitum. Animals were acclimatized for approximately 1 wk after arrival prior to behavioral testing and maintained in Association for Assessment and Accreditation of Laboratory Animal Care (AAALAC)-approved facilities that meet all federal and state guidelines. Procedures were approved by the University of California San Diego institutional animal care and use committee. […]
Eight startle chambers (SR-LAB system, San Diego Instruments, San Diego, CA, USA) were used to measure startle reactivity in rats. […] The peak and average amplitudes of the startle response were detected by a piezoelectric accelerometer. At the onset of the startling stimulus, 100 1-ms readings were recorded, and the average amplitude was used to determine the magnitude of the startle response (measured in arbitrary units).
Acoustic startle test sessions consisted of startle trials (pulse-alone) and prepulse trials (prepulse + pulse). […] During each inter-trial interval, the movements of the animals were recorded once to measure response when no stimulus was present (data not shown). […]

The target of the next test is NET (Homo sapiens, UniProt P23975). The test is described as follows: Monoamine reuptake inhibition assay, NET in HEK293 cells. In kind it is cell-based. The arrangement: expressed in transfected cells; host or cells: HEK293. As to conditions: for Hill slope NET reuptake inhibition: HEK293 cells. As to the method:
(§2) Monoamine reuptake inhibition assays were performed via the NIMH PDSP as previously described.[28] In brief, the neurotransmitter transporter uptake assay kit (R8174) (Molecular Devices) was used. Human monoamine transporters (DAT, NET and SERT) were stably expressed in HEK293 cells. Assay buffer consisted of 20 mM HEPES, 1x HBSS at pH 7.4. Cells were plated in Pol-L-Lys (PLL) coated 384-well black clear bottom cell culture plates with a density of 15,000 cells/well. Cells were incubated for at least 6 h prior to assay. Media was removed and replaced with 20 μL assay buffer and 5 μL of drug or positive control (cocaine or nisoxetine) as a 5X stock. Cells were incubated for 30 min at 37°C. 25 μL of dye solution was then added and following an additional 30 min incubation (at 37°C) fluorescence intensity was measured using a FlexStation II (bottom read mode, excitation wavelength = […], emission = 520 nM with a cutoff of 510 nM). […] Additional details are available in the NIMH PDSP assay protocol book.

The next test addresses DAT (Homo sapiens, UniProt Q01959). The test is described as follows: Monoamine reuptake inhibition assay, DAT in HEK293 cells. In kind it is cell-based. Also on record: expressed in transfected cells; host or cells: HEK293. As to conditions: for Hill slope DAT reuptake inhibition: HEK293 cells. How it is done:
as §2

Molecules are shown by their SMILES.

Sequence of DAT (Q01959 whole entry): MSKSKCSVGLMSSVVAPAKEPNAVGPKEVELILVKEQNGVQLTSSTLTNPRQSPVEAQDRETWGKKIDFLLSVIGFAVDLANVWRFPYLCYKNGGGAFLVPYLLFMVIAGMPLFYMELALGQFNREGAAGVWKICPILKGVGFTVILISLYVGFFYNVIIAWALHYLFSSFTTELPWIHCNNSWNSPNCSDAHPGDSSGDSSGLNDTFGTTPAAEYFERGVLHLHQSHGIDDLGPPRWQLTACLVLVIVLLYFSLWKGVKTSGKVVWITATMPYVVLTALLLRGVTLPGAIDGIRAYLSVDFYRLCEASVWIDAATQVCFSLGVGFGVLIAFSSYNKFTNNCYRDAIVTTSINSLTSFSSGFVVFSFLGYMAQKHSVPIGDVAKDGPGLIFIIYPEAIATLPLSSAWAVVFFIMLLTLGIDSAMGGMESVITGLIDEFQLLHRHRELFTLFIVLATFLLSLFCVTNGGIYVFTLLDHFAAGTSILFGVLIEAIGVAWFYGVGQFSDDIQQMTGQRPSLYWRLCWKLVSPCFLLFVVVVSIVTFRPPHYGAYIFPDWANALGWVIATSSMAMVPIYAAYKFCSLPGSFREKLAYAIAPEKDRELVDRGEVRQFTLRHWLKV
Sequence of NET (P23975 whole entry): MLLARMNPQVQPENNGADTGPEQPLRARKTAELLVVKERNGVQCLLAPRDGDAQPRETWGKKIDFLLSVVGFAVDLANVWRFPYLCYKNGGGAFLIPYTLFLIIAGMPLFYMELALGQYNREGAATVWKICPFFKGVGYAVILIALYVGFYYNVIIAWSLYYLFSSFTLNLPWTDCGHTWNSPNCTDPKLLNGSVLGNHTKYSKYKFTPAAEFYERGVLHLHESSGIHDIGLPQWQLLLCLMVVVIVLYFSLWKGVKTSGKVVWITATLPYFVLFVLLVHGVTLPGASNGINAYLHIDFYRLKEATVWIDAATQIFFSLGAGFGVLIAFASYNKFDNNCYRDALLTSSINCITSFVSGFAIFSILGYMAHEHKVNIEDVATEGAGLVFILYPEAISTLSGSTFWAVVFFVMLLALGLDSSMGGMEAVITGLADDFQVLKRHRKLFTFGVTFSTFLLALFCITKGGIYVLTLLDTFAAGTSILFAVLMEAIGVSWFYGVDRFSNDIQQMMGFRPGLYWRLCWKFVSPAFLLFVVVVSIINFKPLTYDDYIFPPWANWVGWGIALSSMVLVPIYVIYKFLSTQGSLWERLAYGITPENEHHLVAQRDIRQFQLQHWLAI
Sequence of KOR (P41145 whole entry): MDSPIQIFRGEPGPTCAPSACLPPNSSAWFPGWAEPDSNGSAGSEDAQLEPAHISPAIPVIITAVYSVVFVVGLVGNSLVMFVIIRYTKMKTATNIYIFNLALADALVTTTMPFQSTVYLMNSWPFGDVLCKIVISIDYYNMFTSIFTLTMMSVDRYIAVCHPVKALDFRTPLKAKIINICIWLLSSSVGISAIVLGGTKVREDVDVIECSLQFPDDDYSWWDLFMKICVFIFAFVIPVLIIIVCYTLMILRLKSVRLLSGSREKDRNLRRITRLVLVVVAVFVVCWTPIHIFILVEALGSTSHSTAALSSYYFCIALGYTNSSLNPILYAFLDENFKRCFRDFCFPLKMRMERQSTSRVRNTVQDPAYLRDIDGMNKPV

For `c1ccc(CC(c2ccccc2)N2CCCCC2)cc1` (stereo not shown) [DPH, diphenidine], the Ki came out at 3900 nM on KOR, 3050 nM on Alpha2C and 193 nM at Sigma 2. In addition, the “effect on magnitude of the ASR” value in the test with Sprague–Dawley rats (1.25–30 mg/kg s.c., both experiments) is given as “did not alter the magnitude of the ASR”. The IC50 was 9250 nM against NET and 1990 nM on DAT. Also, the “Hill slope NET reuptake inhibition” value on NET was determined as 0.97. For the same molecule, the “Hill slope DAT reuptake inhibition” value on DAT stood at 0.91.
Regarding `COc1ccccc1C(Cc1ccccc1)N1CCCCC1` (stereo not shown) [2-MXP, 2-methoxydiphenidine], the Ki stood at 1690 nM at KOR, 1940 nM at Alpha2C and 508 nM at Sigma 2. Moreover, the “acoustic startle response (ASR) magnitude” value in the test with Sprague–Dawley rats (20 mg/kg s.c., vehicle 175.9 ± 29.2) was 78.8 ± 11.9 arbitrary units. Besides, the results for the IC50 against NET and against DAT were 35200 nM and 30000 nM, respectively. For the same molecule, on NET, the “Hill slope NET reuptake inhibition” value amounted to 2.04. The “Hill slope DAT reuptake inhibition” value on DAT is 0.81.

The Ki is the equilibrium dissociation constant of an inhibitor or competing ligand from its target. Higher therefore signals a looser hold on the target. The term IC50 denotes the concentration needed to halve the response being measured. High values mean lower potency, low ones higher potency.

These data come from PMC4912077 (PLoS ONE, 2016).
